# Source: paper PMC4621994 (British Journal of Pharmacology, 2015)
# Values joined by “and” are separate entries in the source; they are usually repeats but may differ in a detail not shown here. Identical values can stand only once. “Also recorded” adds a separate entry of the source. Like-named read-outs stand apart in the source and are kept apart here.
# What was measured:
# [1] = test system: mIPSCs in hippocampal neurons; type: cell-based, rat
# [2] = test system: native GABAA receptors in hippocampal neurons; test: GABA-evoked currents in cultured hippocampal neurons, perforated patch; type: cell-based, rat; details: for GABA Emax (normalized), solvent / GABA Emax (normalized) in the presence of flupirtine (30 μM): Hippocampus neurons
# [3] = test system: tonically active GABAA receptors in hippocampal neurons; type: cell-based, rat
# [4] = test system: aEPSCs in hippocampal neurons; test: Autaptic excitatory postsynaptic currents (aEPSCs) in hippocampal microcultures; type: cell-based, rat
# [5] = test system: αβ and γ-containing recombinant GABAA receptors; type: cell-based, rat
# [6] = test system: aIPSCs in hippocampal neurons; test: Autaptic inhibitory postsynaptic currents (aIPSCs) in hippocampal microcultures; type: cell-based, rat
# α4β3γ2S GABAA receptor = biological target: T1, α4β3γ2S GABAA receptor (Rattus norvegicus, UniProt P18508+P28471+P63079); test: GABA-evoked currents through recombinant receptors in tsA 201 cells; type: cell-based; details: 30 μM flupirtine, normalized to 30 μM GABA in solvent
# T1 construct: expressed in transfected cells; host or cells: tsA 201 cells
# T1 sequence (P28471 36-552): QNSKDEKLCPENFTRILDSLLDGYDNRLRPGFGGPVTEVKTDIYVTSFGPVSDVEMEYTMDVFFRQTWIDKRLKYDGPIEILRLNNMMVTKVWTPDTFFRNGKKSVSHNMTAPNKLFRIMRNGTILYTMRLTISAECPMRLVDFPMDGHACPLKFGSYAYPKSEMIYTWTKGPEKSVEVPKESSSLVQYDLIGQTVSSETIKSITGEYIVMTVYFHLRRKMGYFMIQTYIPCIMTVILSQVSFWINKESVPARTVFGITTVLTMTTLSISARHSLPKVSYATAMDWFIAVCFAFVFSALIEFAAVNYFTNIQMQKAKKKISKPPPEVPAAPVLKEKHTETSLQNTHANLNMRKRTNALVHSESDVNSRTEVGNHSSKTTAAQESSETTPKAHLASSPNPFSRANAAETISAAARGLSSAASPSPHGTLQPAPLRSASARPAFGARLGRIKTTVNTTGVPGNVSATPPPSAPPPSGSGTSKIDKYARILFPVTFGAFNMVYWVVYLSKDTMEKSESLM
# T1 sequence (P63079 26-473): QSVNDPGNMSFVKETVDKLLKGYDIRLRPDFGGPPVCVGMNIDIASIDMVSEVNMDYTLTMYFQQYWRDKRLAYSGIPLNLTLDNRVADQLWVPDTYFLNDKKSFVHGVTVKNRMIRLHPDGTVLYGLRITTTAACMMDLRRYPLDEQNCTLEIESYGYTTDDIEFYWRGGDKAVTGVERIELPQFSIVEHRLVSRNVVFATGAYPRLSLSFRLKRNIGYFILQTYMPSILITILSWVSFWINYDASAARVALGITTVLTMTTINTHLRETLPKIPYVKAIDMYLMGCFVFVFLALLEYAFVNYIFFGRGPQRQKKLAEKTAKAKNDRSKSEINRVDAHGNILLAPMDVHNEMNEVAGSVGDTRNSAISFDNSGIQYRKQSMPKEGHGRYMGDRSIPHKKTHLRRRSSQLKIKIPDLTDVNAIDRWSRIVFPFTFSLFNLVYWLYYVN
# T1 sequence (P18508 39-466): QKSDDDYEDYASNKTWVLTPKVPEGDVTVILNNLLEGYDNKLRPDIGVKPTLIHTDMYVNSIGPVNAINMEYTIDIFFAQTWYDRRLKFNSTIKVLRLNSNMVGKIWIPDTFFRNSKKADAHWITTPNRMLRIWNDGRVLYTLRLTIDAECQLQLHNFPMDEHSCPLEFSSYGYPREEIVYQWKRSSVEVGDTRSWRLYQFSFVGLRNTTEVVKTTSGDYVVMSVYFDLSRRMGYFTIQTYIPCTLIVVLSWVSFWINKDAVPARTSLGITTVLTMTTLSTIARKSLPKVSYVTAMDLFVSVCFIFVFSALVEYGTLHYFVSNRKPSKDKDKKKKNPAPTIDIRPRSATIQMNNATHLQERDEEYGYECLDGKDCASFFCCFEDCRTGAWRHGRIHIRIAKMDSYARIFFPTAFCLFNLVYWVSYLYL
# [7] = test system: untransfected tsA 201 cells; test: Control recordings in untransfected tsA 201 cells; type: cell-based; details: control experiments
# Experimental: Primary cultures of rat hippocampal and DH neurons were prepared as described previously (Klinger et al., [2012]). Micro-island cultures were obtained as detailed elsewhere (Dorostkar and Boehm, [2007]). For heterologous expression of GABAA receptors and Kv7 channels, tsA 201 cells (a subclone of HEK 293 cells) were cultured in DMEM containing 1 g · L^−1 glucose and 10% heat-inactivated fetal calf serum. Cells were transfected using ExGen 500 or TurboFect according to the manufacturer's recommendations, with a transfection ratio of 1:1 for αβ receptors, 1:1:8 for αβγ or αβδ receptors and 1:1 for heteromeric Kv7.2/Kv7.3 channels. The day after transfection, cells were seeded at a low density and used for patch-clamp recordings 24–48 h after transfection.
# α5β3γ2S GABAA receptor = biological target: T2, α5β3γ2S GABAA receptor (Rattus norvegicus, UniProt P18508+P19969+P63079); test: GABA-evoked currents through recombinant receptors in tsA 201 cells; type: cell-based; details: 30 μM flupirtine, normalized to 30 μM GABA in solvent
# T2 construct: expressed in transfected cells; host or cells: tsA 201 cells
# T2 sequence (P19969 32-464 limits assumed): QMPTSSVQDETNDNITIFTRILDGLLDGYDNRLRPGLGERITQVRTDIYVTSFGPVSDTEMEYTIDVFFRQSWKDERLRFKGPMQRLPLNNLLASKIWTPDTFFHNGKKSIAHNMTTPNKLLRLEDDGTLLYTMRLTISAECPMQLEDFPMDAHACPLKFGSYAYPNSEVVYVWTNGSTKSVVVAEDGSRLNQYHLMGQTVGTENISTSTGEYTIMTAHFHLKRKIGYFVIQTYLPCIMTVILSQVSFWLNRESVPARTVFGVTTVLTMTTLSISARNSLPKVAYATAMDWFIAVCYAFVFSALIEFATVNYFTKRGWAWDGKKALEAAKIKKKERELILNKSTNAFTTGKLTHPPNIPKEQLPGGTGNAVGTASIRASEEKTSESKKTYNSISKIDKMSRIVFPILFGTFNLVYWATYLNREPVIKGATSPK
# T2 sequence (P63079 26-473): as the sequence (P63079 26-473) above
# T2 sequence (P18508 39-466): as the sequence (P18508 39-466) above
# α3β3γ2S GABAA receptor = biological target: T3, α3β3γ2S GABAA receptor (Rattus norvegicus, UniProt P18508+P20236+P63079); test: as above; type: cell-based; details: 30 μM flupirtine, normalized to 30 μM GABA in solvent, n.s. vs solvent
# T3 construct: expressed in transfected cells; host or cells: tsA 201 cells
# T3 sequence (P20236 29-493): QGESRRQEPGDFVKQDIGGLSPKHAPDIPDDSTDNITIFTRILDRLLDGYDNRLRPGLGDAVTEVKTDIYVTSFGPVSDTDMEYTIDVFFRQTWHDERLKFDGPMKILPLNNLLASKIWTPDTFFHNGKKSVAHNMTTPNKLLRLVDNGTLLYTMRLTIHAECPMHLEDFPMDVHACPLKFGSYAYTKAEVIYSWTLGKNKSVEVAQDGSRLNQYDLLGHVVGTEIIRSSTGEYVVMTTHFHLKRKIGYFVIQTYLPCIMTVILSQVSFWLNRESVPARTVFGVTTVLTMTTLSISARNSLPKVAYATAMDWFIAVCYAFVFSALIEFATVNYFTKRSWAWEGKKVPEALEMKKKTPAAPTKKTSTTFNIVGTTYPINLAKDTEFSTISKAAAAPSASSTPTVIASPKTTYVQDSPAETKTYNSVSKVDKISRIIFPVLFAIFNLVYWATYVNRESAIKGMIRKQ
# T3 sequence (P63079 26-473): as the sequence (P63079 26-473) above
# T3 sequence (P18508 39-466): as the sequence (P18508 39-466) above
# [8] = design: method as in Friedel and Fitton, 1993; details: ref Friedel and Fitton, 1993; cited from earlier work
# α1β2δ GABAA receptor = biological target: T4, α1β2δ GABAA receptor (Rattus norvegicus, UniProt P18506+P62813+P63138); test: GABA-evoked currents through recombinant receptors in tsA 201 cells; type: cell-based
# T4 construct: expressed in transfected cells; host or cells: tsA 201 cells
# T4 sequence (P62813 28-455): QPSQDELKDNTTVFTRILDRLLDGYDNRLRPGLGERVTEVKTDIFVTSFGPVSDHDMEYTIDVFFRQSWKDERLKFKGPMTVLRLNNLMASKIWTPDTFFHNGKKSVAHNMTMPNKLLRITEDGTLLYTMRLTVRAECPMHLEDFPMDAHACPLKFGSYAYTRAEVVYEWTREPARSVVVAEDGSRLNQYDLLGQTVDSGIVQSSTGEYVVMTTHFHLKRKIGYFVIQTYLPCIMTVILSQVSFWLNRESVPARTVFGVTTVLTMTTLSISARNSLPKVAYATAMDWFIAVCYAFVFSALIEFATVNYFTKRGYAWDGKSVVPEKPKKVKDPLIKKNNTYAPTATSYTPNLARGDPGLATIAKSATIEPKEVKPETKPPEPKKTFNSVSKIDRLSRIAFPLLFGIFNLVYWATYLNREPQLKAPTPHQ
# T4 sequence (P63138 25-474 limits assumed): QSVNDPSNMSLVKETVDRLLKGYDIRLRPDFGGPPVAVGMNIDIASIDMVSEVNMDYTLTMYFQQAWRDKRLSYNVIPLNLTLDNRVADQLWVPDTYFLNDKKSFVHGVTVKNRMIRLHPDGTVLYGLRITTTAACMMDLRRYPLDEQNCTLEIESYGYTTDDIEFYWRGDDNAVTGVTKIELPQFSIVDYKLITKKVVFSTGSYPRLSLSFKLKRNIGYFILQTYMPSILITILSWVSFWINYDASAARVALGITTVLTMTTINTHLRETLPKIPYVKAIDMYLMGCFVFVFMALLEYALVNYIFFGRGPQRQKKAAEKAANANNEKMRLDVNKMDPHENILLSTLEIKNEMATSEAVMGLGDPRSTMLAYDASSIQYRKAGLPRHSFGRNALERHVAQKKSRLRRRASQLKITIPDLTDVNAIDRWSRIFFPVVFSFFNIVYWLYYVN
# T4 sequence (P18506 17-449 limits assumed): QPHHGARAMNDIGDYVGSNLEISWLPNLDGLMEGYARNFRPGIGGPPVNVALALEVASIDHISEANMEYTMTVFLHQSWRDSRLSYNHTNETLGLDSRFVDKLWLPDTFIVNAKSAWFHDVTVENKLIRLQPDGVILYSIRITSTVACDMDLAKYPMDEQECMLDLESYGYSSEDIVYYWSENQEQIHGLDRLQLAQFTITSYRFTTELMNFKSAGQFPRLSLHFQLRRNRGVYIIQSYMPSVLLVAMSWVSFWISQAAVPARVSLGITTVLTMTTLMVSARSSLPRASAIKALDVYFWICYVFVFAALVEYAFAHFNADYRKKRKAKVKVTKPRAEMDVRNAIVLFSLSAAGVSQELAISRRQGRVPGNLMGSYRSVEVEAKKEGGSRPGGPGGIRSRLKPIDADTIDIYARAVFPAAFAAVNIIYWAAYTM
# α2β2γ2S GABAA receptor = biological target: T5, α2β2γ2S GABAA receptor (Rattus norvegicus, UniProt P18508+P23576+P63138); test: as above; type: cell-based; details: 30 μM flupirtine, normalized to 30 μM GABA in solvent, n.s. vs solvent
# T5 construct: expressed in transfected cells; host or cells: tsA 201 cells
# T5 sequence (P23576 29-451): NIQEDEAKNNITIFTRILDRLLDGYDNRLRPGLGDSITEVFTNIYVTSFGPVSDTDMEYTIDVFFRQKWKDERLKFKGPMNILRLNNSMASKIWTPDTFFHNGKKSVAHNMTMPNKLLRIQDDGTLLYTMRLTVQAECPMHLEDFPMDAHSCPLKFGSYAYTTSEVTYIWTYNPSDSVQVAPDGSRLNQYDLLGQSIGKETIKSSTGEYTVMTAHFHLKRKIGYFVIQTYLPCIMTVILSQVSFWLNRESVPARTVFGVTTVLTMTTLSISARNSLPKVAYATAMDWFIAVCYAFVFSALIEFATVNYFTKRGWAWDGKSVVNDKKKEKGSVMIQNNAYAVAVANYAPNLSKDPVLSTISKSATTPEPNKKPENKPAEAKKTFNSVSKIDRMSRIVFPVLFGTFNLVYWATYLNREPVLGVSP
# T5 sequence (P63138 25-474 limits assumed): as the sequence (P63138 25-474 limits assumed) above
# T5 sequence (P18508 39-466): as the sequence (P18508 39-466) above
# [9] = Plasma pharmacokinetics and therapeutic plasma levels of flupirtine (literature); type: in vivo; details: after single doses
# [10] = test system: Kv7 channels in hippocampal neurons; test: K+ currents in hippocampal neurons, ramp hyperpolarizations, amplitude at −30 mV; type: cell-based, rat
# [11] = test system: GABAA receptors in DH neurons; test: GABA-evoked currents in dorsal horn neurons; type: cell-based, rat; details: 3 μM GABA; concentration-dependent
# [12] = cited from earlier work
# α1β2 GABAA receptor = biological target: T6, α1β2 GABAA receptor (Rattus norvegicus, UniProt P62813+P63138); test: GABA-evoked currents through recombinant receptors in tsA 201 cells; type: cell-based; details: 30 μM flupirtine, normalized to 30 μM GABA in solvent
# T6 construct: expressed in transfected cells; host or cells: tsA 201 cells
# T6 sequence (P62813 28-455): as the sequence (P62813 28-455) above
# T6 sequence (P63138 25-474 limits assumed): as the sequence (P63138 25-474 limits assumed) above
# α1β2γ2S GABAA receptor = biological target: T7, α1β2γ2S GABAA receptor (Rattus norvegicus, UniProt P18508+P62813+P63138); test: as above; type: cell-based
# T7 construct: expressed in transfected cells; host or cells: tsA 201 cells
# T7 sequence (P62813 28-455): as the sequence (P62813 28-455) above
# T7 sequence (P63138 25-474 limits assumed): as the sequence (P63138 25-474 limits assumed) above
# T7 sequence (P18508 39-466): as the sequence (P18508 39-466) above
# α4β3 GABAA receptor = biological target: T8, α4β3 GABAA receptor (Rattus norvegicus, UniProt P28471+P63079); test: as above; type: cell-based; details: 30 μM flupirtine, normalized to 30 μM GABA in solvent
# T8 construct: expressed in transfected cells; host or cells: tsA 201 cells
# T8 sequence (P28471 36-552): as the sequence (P28471 36-552) above
# T8 sequence (P63079 26-473): as the sequence (P63079 26-473) above
# α4β3δ GABAA receptor = biological target: T9, α4β3δ GABAA receptor (Rattus norvegicus, UniProt P18506+P28471+P63079); test: as above; type: cell-based
# T9 construct: expressed in transfected cells; host or cells: tsA 201 cells
# T9 sequence (P28471 36-552): as the sequence (P28471 36-552) above
# T9 sequence (P63079 26-473): as the sequence (P63079 26-473) above
# T9 sequence (P18506 17-449 limits assumed): as the sequence (P18506 17-449 limits assumed) above
# Kv7 channels = test system: Kv7 channels; design: method as in Klinger et al., 2012; details: ref Klinger et al., 2012; read-out: EC50 for the facilitation of Kv7 channels; cited from earlier work
# [13] = biological target: T10, δ-containing GABAA receptors in DH neurons (Rattus norvegicus, UniProt P18506); test: THIP-evoked currents in dorsal horn neurons; type: cell-based; details: 3 μM THIP; concentration-dependent; more pronounced than on GABA currents; at 10 μM larger than on K+ currents
# T10 construct: endogenous in cells; host or cells: primary cultured rat dorsal horn neurons
# T10 sequence (P18506 17-449 limits assumed): as above
# [14] = biological target: T11, δ-containing GABAA receptors in hippocampal neurons (Rattus norvegicus, UniProt P18506); test: THIP-evoked currents in cultured hippocampal neurons; type: cell-based; details: 30 μM flupirtine; 3 μM THIP; greater extent than 3 μM GABA in 5 mM penicillin
# T11 construct: endogenous in cells; host or cells: primary cultured rat hippocampal neurons
# T11 sequence (P18506 17-449 limits assumed): as above
# [15] = test system: Kv7 channels in DH neurons; test: K+ currents in dorsal horn neurons, ramp hyperpolarizations, amplitude at −30 mV; type: cell-based, rat; details: 3 and 10 μM flupirtine; quantified at −30 mV
# [16] = biological target: T12, heteromeric Kv7.2/Kv7.3 channels (UniProt O43526+O88944); test: Currents through recombinant Kv7 channels in tsA 201 cells, ramp hyperpolarizations, amplitude at −30 mV; type: cell-based
# T12 construct: expressed in transfected cells; host or cells: tsA 201 cells
molecule,measurement,setting,value
penicillin,Effect on mIPSCs,[1]; 5 mM penicillin,abolished
same,Effect on maximal amplitudes of GABA-evoked currents,[2]; 5 mM penicillin,significantly reduced
same,Effect on holding currents,[3]; 5 mM penicillin,did not affect
Cc1ncc2n1-c1ccc(Cl)cc1C(c1ccccc1F)=NC2 [midazolam],Effect on half widths of mIPSCs,[1]; 3 μM midazolam,increased
same,Effect on mIPSC amplitudes or rise times,[1]; 3 μM midazolam,without altering
same,Effect on holding currents,[3]; 3 μM midazolam,slight shift of holding currents in an inward direction
"N#Cc1cc2nc(O)c(O)nc2cc1[N+](=O)[O-] [CNQX, cyano-2,3-dihydroxy-7-nitroquinoxaline]",Effect on aEPSCs,[4]; 10 μM CNQX,blocked
NCCCC(=O)O [GABA],"GABA Emax (normalized), solvent","[2]; 5 mM penicillin present, normalized to 30 μM GABA in penicillin plus solvent",1.02 ± 0.02
same,"GABA Emax (normalized), solvent","[2]; solvent, normalized to current by 30 μM GABA in solvent",1.33 ± 0.03
CCOC(=O)Nc1ccc(NCc2ccc(F)cc2)nc1N [Flupirtine],Reduction of maximal current amplitudes,[5],18 to 35%
same,Effect on aIPSC peak amplitudes,[6],unaltered
same,EC50,"[6]; Rattus norvegicus, Hippocampal neuron, n = 6, read-out: EC50 for the effect on aIPSC charge transfer",12 µM
same,GABA Emax (normalized) in the presence of flupirtine (30 μM),α4β3γ2S GABAA receptor,1.63 ± 0.05
same,"Effect on all characteristics of mIPSCs (amplitudes, rise times, half widths)","[1]; 30 μM flupirtine, 0.5 μM tetrodotoxin plus 10 μM CNQX",remained unaltered
same,Effect on aEPSCs,[4]; aIPSCs (former) vs aEPSCs (latter),only the former ones were affected
same,Effect on currents in untransfected cells,[7],failed to enhance any type of current
same,Maximal increase in GABA-evoked current amplitudes (factor),[2],~9 and > 8
same,Maximal increase in GABA-evoked current amplitudes (factor),"[2]; 3 μM GABA in solvent, no penicillin",2.5 and < 3
same,Effect of flupirtine on GABA-evoked currents,"[2]; 3 μM flupirtine, presence of penicillin",enhanced
same,Effect of flupirtine on GABA-evoked currents,"[2]; 10 μM flupirtine, absence of penicillin",increased
same,Effect of flupirtine on GABA-evoked currents,"[2]; 10 μM flupirtine, presence of penicillin, more pronounced than on the other currents",increased
same,GABA Emax (normalized) in the presence of flupirtine (30 μM),"[2]; 30 μM flupirtine, normalized to 30 μM GABA in solvent, n.s. vs solvent",1.25 ± 0.04 n.s.
same,GABA Emax (normalized) in the presence of flupirtine (30 μM),"[2]; 5 mM penicillin plus 30 μM flupirtine, normalized to 30 μM GABA in penicillin plus solvent",1.46 ± 0.03
same,GABA Emax (normalized) in the presence of flupirtine (30 μM),α5β3γ2S GABAA receptor,0.94 ± 0.06
same,GABA Emax (normalized) in the presence of flupirtine (30 μM),α3β3γ2S GABAA receptor,1.93 ± 0.10 n.s.
same,Bound by plasma proteins,[8],80%
same,EC50,α1β2δ GABAA receptor,108 µM
same,Effect of flupirtine on GABA-evoked currents,α1β2δ GABAA receptor,potentiated; also recorded: augmented
same,Maximum of flupirtine effect on GABA-evoked currents (normalized to solvent),α1β2δ GABAA receptor,28.8
same,GABA Emax (normalized) in the presence of flupirtine (30 μM),"α1β2δ GABAA receptor; α1β2δ, 30 μM flupirtine, normalized to 30 μM GABA in solvent",2.27 ± 0.06
same,GABA Emax (normalized) in the presence of flupirtine (30 μM),α2β2γ2S GABAA receptor,2.54 ± 0.14 n.s.
same,Free plasma concentrations,[9],1000 to 2000 nM
same,Effect of flupirtine on K+ currents at −30 mV,[10]; 3 μM flupirtine,enhanced
same,Effect of flupirtine on K+ currents at −30 mV,[10]; 10 μM flupirtine,increased
same,Effect of flupirtine on GABA-induced currents,[11],enhanced
same,Accumulation,"[12]; four regularly spaced oral doses a day, ref Friedel and Fitton, 1993",more than twofold
same,Plasma half-life,"[12]; ref Friedel and Fitton, 1993",about 10 h
same,Plasma concentrations,"[12]; single dose of 200 mg, ref Hummel et al., 1991",around 5 μM
same,GABA Emax (normalized) in the presence of flupirtine (30 μM),α1β2 GABAA receptor,0.71 ± 0.02
same,Effect of flupirtine on GABA-evoked currents,α1β2γ2S GABAA receptor; 10 μM flupirtine,augmented
same,GABA Emax (normalized) in the presence of flupirtine (30 μM),"α1β2γ2S GABAA receptor; 30 μM flupirtine, normalized to 30 μM GABA in solvent",0.85 ± 0.02
same,GABA Emax (normalized) in the presence of flupirtine (30 μM),α4β3 GABAA receptor,0.78 ± 0.02
same,EC50,α4β3δ GABAA receptor,7 µM
same,Maximum of flupirtine effect on GABA-evoked currents (normalized to solvent),"α4β3δ GABAA receptor; α4β3δ, 1 μM GABA, fixed to the highest value determined",1.5
same,Effect of flupirtine on GABA-evoked currents,"α4β3δ GABAA receptor; α4β3δ, 3 μM flupirtine, 1 μM GABA",potentiated
same,Effect of flupirtine on GABA-evoked currents,"α4β3δ GABAA receptor; α4β3δ, 10 μM flupirtine",augmented
same,GABA Emax (normalized) in the presence of flupirtine (30 μM),"α4β3δ GABAA receptor; α4β3δ, 30 μM flupirtine, normalized to 30 μM GABA in solvent",1.55 ± 0.06
same,EC50,Kv7 channels,5 µM
same,Effect of flupirtine on THIP-induced currents,[13],enhanced
same,Effect on holding currents,"[3]; 30 μM flupirtine, −70 mV",shifted towards more negative values
same,Effect on amplitudes of bicuculline-sensitive tonic currents,"[3]; 3 to 30 μM flupirtine, concentration-dependent",enhanced
same,Effect of flupirtine on THIP-induced currents,[14],augmented
same,Effect of flupirtine on K+ currents,[15],enhanced
same,Effect of flupirtine on currents through Kv7 channels at −30 mV,[16]; 3 μM flupirtine,enhanced
same,Effect of flupirtine on currents through Kv7 channels at −30 mV,[16]; 10 μM flupirtine,augmented
